US8629180B2, “Antiseptic agent composition” (Taiyo Corporation, priority 2009, dated 2014)

Key:
E. coli = assay: Antiseptic and bactericidal effect found by the applicant (background); assay type: cell-based; conditions: background statement, the present applicant has found
S. aureus = assay: as above; assay type: cell-based; conditions: background statement, the present applicant has found

glycerin ricinoleic acid monoester
antiseptic and bactericidal effect on E. coli (in words) (E. coli): almost no antiseptic and bactericidal effect
antiseptic and bactericidal effects on S. aureus (in words) (S. aureus): exerts antiseptic and bactericidal effects
